Data taken from article PMC10391911, “Differential effects of two phosphodiesterase 4 inhibitors against lipopolysaccharide-induced neuroinflammation in mice” (BMC Neuroscience, 2023).

Legend:
[1] = Bidirectional MDR1-MDCK monolayer permeability; type: in vitro ADME, canine; conditions: dog, MDCK-MDR1; for Papp at 3 µM: both directions, read-out: Apparent permeability coefficients; for Papp A→B at 3 µM / Papp A→B at 10 µM / Papp A→B at 30 µM: read-out: Papp Apical → Basolateral; for Papp B→A at 3 µM / Papp B→A at 10 µM / Papp B→A at 30 µM: read-out: Papp Basolateral → Apical; for Papp A→B: read-out: Papp in the apical-to-basolateral direction
Experimental: MDR1-MDCK cells were seeded at a density of 2 × 10^5 cells/well on the apical side of 24-transwell plates with a pore size of 0.4 μm (Corning Costar, Cambridge, MA, USA). Each basolateral chamber was filled with 0.6 mL medium, and each apical side with 0.2 mL medium containing cells. The plates seeded with cells were incubated for 3 days. The culture medium was replaced on both the apical and basolateral sides 2 days after seeding. Before the experiment, the transepithelial electrical resistance was measured using an epithelial voltohmmeter (Millicell ERS-2; Millipore), where 300 ohms or greater was considered to indicate the formation of a cell monolayer with tight junctions. The cells were rinsed twice with pre-warmed Hank’s balanced salt solution (HBSS) containing 10 mM of HEPES and were incubated in a CO2 incubator for 30 min. […] After equilibration, the solutions containing the test or reference compounds were added to either the apical side (0.2 mL) or basolateral side (0.6 mL) of the wells, and the plates were incubated in a shaking incubator (37℃, 200 rpm). Samples were collected every 30 min. To test for apical-to-basolateral flow, 110 µL sample was removed from each basolateral chamber; to test for basolateral-to-apical flow, 110 µL sample was taken from each apical chamber; then, each well was replenished with 110 µL fresh HBSS. To each sample, 50 µL internal standard (5 ng/mL disopyramide) in water was added. Samples were prepared for analysis using solid-phase extraction, and the sample concentrations were analyzed via LC-MS/MS. The permeability of the tested compounds was evaluated by calculating the apparent permeability coefficient (Papp, cm/s) and the efflux ratio (ER). The Papp was calculated as follows: [drawing 1] where dQ/dt is the initial permeability rate of the compound across the cells (ng/s), A is the surface area of the cell monolayer (cm^2), and C0 is the initial concentration of the donor side (ng/mL). From the apical-to-basolateral and basolateral-to-apical Papp values, the ER was calculated as follows: [drawing 2]

[2] = test system: PDE4As, PDE4Bs and PDE4Ds; conditions: against PDE4As; cited from earlier work
PDE4Cs = conditions: against PDE4Cs; cited from earlier work
PDE4B = conditions: quoted in discussion without reference, cf. b4; read-out: PDE4B inhibitory concentration; cited from earlier work
[3] = mice and rats; cited from earlier work
memory = conditions: rodents; cited from earlier work
APP/PS1 mouse model = conditions: 0.1, 0.2, and 0.4 mg/kg intragastrically for 3 weeks, APP/PS1 mice; cited from earlier work
[4] = test system: TNF-α, IL-1β, and IL-6 levels and apoptotic neurons in the brain; conditions: 3 mg/kg subcutaneous, following subarachnoid hemorrhage; cited from earlier work
BV-2 cells = type: cell-based, murine; conditions: 24 h exposure, tested up to 100 µM
Experimental: Cell viability was assessed using the WST-8 assay with Cyto X reagent (LPS Solution, Daejeon, Korea). BV-2 microglial cells were seeded at a density of 5 × 10^5 cells/mL in 96-well plates. […] Finally, Cyto X solution was loaded in each well and incubated for 20 min.

PDE4D7 = test system: PDE4D7; parameters: method as in PMID 33363155; conditions: against PDE4D7; cited from earlier work
PDE4D3 = test system: PDE4D3; parameters: method as in PMID 33363155; conditions: against PDE4D3; cited from earlier work
brain cAMP levels = test system: brain cAMP levels; parameters: method as in PMID 28772081, PMID 33363155; conditions: cited from earlier work

Compound: O=C(Nc1c(Cl)cncc1Cl)c1ccc(OC(F)F)c(OCC2CC2)c1 [roflumilast]
- Papp at 3 µM ([1]; 3 µM): > 23 ×10⁻⁶ cm/s
- Papp A→B at 3 µM ([1]; 3 µM): 25.1 ± 1.28 ×10⁻⁶ cm/s
- Papp B→A at 3 µM ([1]; 3 µM): 23.9 ± 3.61 ×10⁻⁶ cm/s
- Papp A→B at 10 µM ([1]; 10 µM): 44.5 ± 2.53 ×10⁻⁶ cm/s
- Papp B→A at 10 µM ([1]; 10 µM): 40.8 ± 6.48 ×10⁻⁶ cm/s
- Papp A→B at 30 µM ([1]; 30 µM): 113 ± 5.7 ×10⁻⁶ cm/s
- Papp B→A at 30 µM ([1]; 30 µM): 72.2 ± 6.32 ×10⁻⁶ cm/s
- Papp A→B ([1]; over 3, 10, and 30 µM): > 25 ×10⁻⁶ cm/s
- IC50 [2]: 0.2 to 0.9 nM
- IC50 (PDE4Cs): 3 to 4.3 nM
- Calculated oral emetic dosages [3]: 9 to 30 mg/kg
- Effect on memory in object-location task and spatial Y-maze (memory): enhanced memory
- Performance in Morris water maze, novel object recognition, and passive avoidance tasks (APP/PS1 mouse model): restored performance
- TNF-α, IL-1β, and IL-6 levels and number of apoptotic neurons in the brain [4]: decreased

Compound: O=C(O)Cc1ccc(Cc2cc(-c3cccc(Cl)c3)nc(C(F)(F)F)c2)cc1 [zatolmilast]
- Papp at 3 µM ([1]; 3 µM): 3.72 to 7.18 ×10⁻⁶ cm/s
- Papp A→B at 3 µM ([1]; 3 µM): 3.72 ± 0.33 ×10⁻⁶ cm/s
- Papp B→A at 3 µM ([1]; 3 µM): 7.18 ± 1.53 ×10⁻⁶ cm/s
- Papp A→B at 10 µM ([1]; 10 µM): 9.59 ± 0.84 ×10⁻⁶ cm/s
- Papp B→A at 10 µM ([1]; 10 µM): 18 ± 1.37 ×10⁻⁶ cm/s
- Papp A→B at 30 µM ([1]; 30 µM): 70.3 ± 9.58 ×10⁻⁶ cm/s
- Papp B→A at 30 µM ([1]; 30 µM): 126 ± 8.39 ×10⁻⁶ cm/s
- Papp A→B ([1]; over 3, 10, and 30 µM): > 3.7 ×10⁻⁶ cm/s
- IC50 (PDE4D3): 7.4 nM
- Effect on brain cAMP levels (brain cAMP levels): increases brain cAMP levels
